Source: patent US20250319056A1, “METHODS FOR TREATING CANCER” (THE TRUSTEES OF INDIANA UNIVERSITY, priority 2024, published 2025)
Like-named read-outs stand apart in the source and are kept apart here.

How the values were obtained:
[1] = biological target: T1, mHSP60/10 (Homo sapiens, UniProt P10809); experiment: mHSP60/10-mediated dMDH refolding assay; format: biochemical
T1 construct: Processed human HSP60 (mHSP60—that would be in mitochondria) was expressed in Rosetta™ 2 (DE3) E. coli; octa-Histidine tag (TEV-cleavable) (N, cleaved yes); made in house; host or cells: E. coli Rosetta 2 (DE3) for mHSP60; Rosetta 2 (DE3) pLysS for HSP10
T1 sequence (P10809 27-573): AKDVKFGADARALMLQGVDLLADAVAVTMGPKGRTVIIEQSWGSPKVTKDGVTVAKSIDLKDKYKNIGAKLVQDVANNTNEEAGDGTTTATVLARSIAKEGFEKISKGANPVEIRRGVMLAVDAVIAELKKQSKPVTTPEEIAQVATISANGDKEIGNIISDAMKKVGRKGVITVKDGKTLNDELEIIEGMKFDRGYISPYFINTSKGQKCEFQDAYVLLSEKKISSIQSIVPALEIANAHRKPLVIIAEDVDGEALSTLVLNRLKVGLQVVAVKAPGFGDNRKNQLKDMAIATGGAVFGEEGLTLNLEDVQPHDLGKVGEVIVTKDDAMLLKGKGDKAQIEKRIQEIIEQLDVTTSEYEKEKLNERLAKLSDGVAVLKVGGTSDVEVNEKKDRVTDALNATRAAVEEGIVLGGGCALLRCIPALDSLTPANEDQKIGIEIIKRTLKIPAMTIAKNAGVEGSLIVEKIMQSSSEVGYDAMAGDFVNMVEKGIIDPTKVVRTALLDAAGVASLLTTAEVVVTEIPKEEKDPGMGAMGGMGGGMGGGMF

[2] = AlamarBlue cell viability assay, non-cancerous colon FHC cells; conditions: human, FHC non-cancerous colon cells, Human Cell Viability CC50 Colon (FHC), non-cancerous colon cells, AlamarBlue, 48 h
[3] = biological target: T2, GroEL/ES (Escherichia coli, UniProt P0A6F5); experiment: GroEL/ES-dMDH refolding assay; format: biochemical, E. coli
T2 construct: made in house; host or cells: NEB 5-alpha E. coli for GroEL; E. coli BL21 (DE3) for GroES
T2 sequence (P0A6F5 2-548): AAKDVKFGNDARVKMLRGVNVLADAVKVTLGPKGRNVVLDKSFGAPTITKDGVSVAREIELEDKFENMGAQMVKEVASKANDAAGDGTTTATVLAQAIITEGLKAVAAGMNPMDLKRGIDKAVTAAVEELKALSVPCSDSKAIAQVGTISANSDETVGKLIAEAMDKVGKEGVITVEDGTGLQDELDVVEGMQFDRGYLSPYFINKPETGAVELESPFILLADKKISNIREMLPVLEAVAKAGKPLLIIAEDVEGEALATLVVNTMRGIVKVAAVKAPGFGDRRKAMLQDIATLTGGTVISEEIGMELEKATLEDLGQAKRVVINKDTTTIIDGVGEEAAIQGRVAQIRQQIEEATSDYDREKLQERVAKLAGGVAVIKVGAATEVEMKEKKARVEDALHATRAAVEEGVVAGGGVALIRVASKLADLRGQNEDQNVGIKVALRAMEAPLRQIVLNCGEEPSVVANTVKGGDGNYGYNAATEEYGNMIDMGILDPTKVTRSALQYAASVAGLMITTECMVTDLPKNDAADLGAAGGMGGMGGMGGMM

[4] = AlamarBlue cell viability assay, non-cancerous intestine FHs-74Int cells; conditions: human, FHs-74Int non-cancerous intestine cells, Human Cell Viability CC50 Intestine (FHs 74Int), non-cancerous intestine cells, AlamarBlue, 48 h
[5] = system: HCT-116 cells; experiment: AlamarBlue cell viability assay, HCT-116 colon cancer cells; format: cell-based, human; conditions: for Average Selectivity Index: CC50 non-cancer cells (FHC, FHs 74Int) compared to EC50 HCT-116; for EC50: read-out: Human Cell Viability EC50 Colon Cancer (HCT 116)
[6] = system: DLD-1 cells; experiment: AlamarBlue cell viability assay, DLD-1 colon cancer cells; format: cell-based; conditions: Homo sapiens, 48 h with compound, ^BP = curve baseline plateaued between ~10-20%, read-out: Human Cell Viability EC50 Colon Cancer (DLD1)
[7] = system: HT-29 cells; experiment: AlamarBlue cell viability assay, HT-29 colon cancer cells; format: cell-based; conditions: Homo sapiens, 48 h with compound, ^BP = curve baseline plateaued between ~10-20%
[8] = system: NCI-60 cancer cell panel; experiment: NCI-60 panel single-dose cell growth screen; format: cell-based; conditions: single dose 10 μM; 0 = cytostatic, -100% = cytocidal, +100% = growth
Protocol: FIGS. 10A-10J show cell growth results for 10 lead candidate inhibitors (compound 162, FIG. 10A; compound 163, FIG. 10B; compound 164, FIG. 10C; compound 4, FIG. 10D; compound 165, FIG. 10E; compound 139, FIG. 10F; compound 132, FIG. 10G; compound 143, FIG. 10H; compound 147, FIG. 10I; compound 128, FIG. 10J) tested at 10 μM against the NCI cancer cell panel. Zero indicates no cells growth/death from what was initially plated (cytostatic inhibition). −100% indicates […] (cytocidal inhibition). +100% indicates cell growth.
In a previous study evaluating the anti-cancer effects of ABK inhibitors, the National Cancer Institute (NCI) database was explored for existing cytotoxicity results for any compounds bearing α,β-unsaturated ketone moieties against the comprehensive NCI-60 cancer cell panel. […] The HQ-NAH and NF-NAH inhibitor library was explored based on the similarity to Nifuroxazide's scaffold. […] Initial screening was performed at a single concentration of 10 μM, and cell growth results are presented in aggregate based on cancer cell origin (FIGS. 10A-10J).

[9] = system: FHC cells; experiment: AlamarBlue cell viability assay, non-cancerous colon FHC cells; conditions: read-out: Human Cell Viability CC50 Colon (FHC); non-cancerous colon cells, AlamarBlue, 48 h
[10] = system: FHs-74Int cells; experiment: AlamarBlue cell viability assay, non-cancerous intestine FHs-74Int cells; conditions: read-out: Human Cell Viability CC50 Intestine (FHs 74Int); non-cancerous intestine cells, AlamarBlue, 48 h
[11] = system: NCI-60 cancer cell panel; experiment: NCI-60 panel dose-response cell growth testing; format: cell-based; conditions: follow-up dose response, range across NCI-60 cell lines
Source text: FIGS. 11A-11G show cell growth results in dose-response for 7 lead candidate inhibitors (compound 162, FIG. 11A; compound 164, FIG. 11B; compound 128, FIG. 11C compound 165, FIG. 11D; compound 139, FIG. 11E; compound 143, FIG. 11F; compound 147, FIG. 11G) from initial single-dose NCI-60 screen.
Therefore, they appeared to act in a cytocidal manner.

[12] = system: FHs-74Int cells
[13] = system: FHC cells
[14] = denatured malate dehydrogenase client, read-out: IC50 mHSP60/10-dMDH refolding
[15] = Homo sapiens, HCT-116, 48 h, AlamarBlue, 48 h with compound

SMILES | CC50 at 48 h [2] [µM] | CC50 at 48 h [4] [µM] | Average Selectivity Index [5] | EC50 [5, 15] [µM] | EC50 [6] [µM] | EC50 [7] [µM] | cell growth % NCI cancer cell panel [8] | CC50 [12] [µM] | CC50 [13] [µM] | also measured
O=C(/C=C/c1cccc([N+](=O)[O-])c1)c1ccc(NC(=O)c2ccco2)cc1 [Compound 4, (E)-N-(4-(3-(3-nitrophenyl)acryloyl)phenyl)furan-2-carboxamide] | > 100 | 54 | 19.1 | 4 | 39.7 | 3.6 | largely inactive | – | – | IC50 [1, 14]: 0.8 to 9 µM; IC50 [3]: 0.8 to 9 µM
COc1ccc(C(=O)N/N=C/c2ccc(O)c3ncccc23)cc1 [Compound 18, N′-((8-hydroxyquinolin-5-yl)methylene)-4-methoxybenzohydrazide] | 28.4 | 54.9 | 5.3 | 7.8 | 3.8 | 3.5 | – | – | – | IC50 [1, 14]: 0.8 to 9 µM; CC50 [9]: 28 µM; IC50 [3]: 0.8 to 9 µM; CC50 [10]: 55 µM
COc1ccc(-c2ccc3cc(C(=O)O)ccc3c2)cc1C12CC3CC(CC(C3)C1)C2 [Compound 25, Adapalene, reference compound] | 43.7 | 18.5 | 5.4 | 5.8 | 7.9 | 5.3 | – | – | – | IC50 [1, 14]: 0.8 to 9 µM; IC50 [3]: 0.8 to 9 µM
Oc1c(Cl)cc(Cl)c(Cl)c1Cc1c(O)c(Cl)cc(Cl)c1Cl [Compound 32, Hexachlorophene, reference compound] | – | – | – | – | – | – | – | – | – | IC50 [1]: 0.8 to 9 µM; IC50 [3]: 0.8 to 9 µM; EC50 ([5]; Homo sapiens, HCT-116, 48 h): 4.6 µM
CN(C)c1ccc(C(=C2C=CC(=[N+](C)C)C=C2)c2ccc(N(C)C)cc2)cc1 [Compound 56, Crystal Violet, reference compound] | 8.6 | 1.6 | 9.4 | 0.54 | 0.2 | 0.1 | – | – | – | IC50 [1, 14]: 0.8 to 9 µM; IC50 [3]: 0.8 to 9 µM; EC50 ([5]; AlamarBlue, 48 h with compound): 0.5 µM
CCCCCOc1ccc(/C=C2\Oc3c(ccc(O)c3O)C2=O)c(O)c1 [Compound 86] | > 100 | > 100 | 8.0 | 12.5 | 23 | 5.9 | – | – | – | IC50 [1, 14]: 0.8 to 9 µM; IC50 [3]: 0.8 to 9 µM
Oc1cccc(C(Nc2nccs2)c2ccc3cccnc3c2O)c1 (stereo not drawn) [Compound 90] | 66.6 | 64.6 | 26.2 | 2.5 | 15 | 8.3 | – | – | – | IC50 [1, 14]: 0.8 to 9 µM; IC50 [3]: 0.8 to 9 µM
O=C(N/N=C/c1ccc([N+](=O)[O-])o1)c1cccc(Oc2ccccc2)c1 [Compound 128, N′-((5-nitrofuran-2-yl)methylene)-3-phenoxybenzohydrazide] | 61 | 60 | 17.4 | 3.5 | 7.3 | 1.6 | a range of positive, negative, and zero growth | – | – | GI50 [11]: 1 to 31 µM
O=C(N/N=C/c1ccc(O)c2ncccc12)c1ccc(O)cc1 [Compound 139, 4-hydroxy-N′-((8-hydroxyquinolin-5-yl)methylene)benzohydrazide] | > 100 | 56 | 11 | 7.4 | 19 | 6.3 | around 0% | – | – | GI50 [11]: 1 to 5 µM
O=C(N/N=C/c1ccc(O)c2ncccc12)c1cccc(Oc2ccccc2)c1 [Compound 143, N′-((8-hydroxyquinolin-5-yl)methylene)-3-phenoxybenzohydrazide] | 41 | 21 | 4.8 | 6.5 | – | – | negative % growth | – | – | GI50 [11]: 0.2 to 0.4 µM
CCOc1ccc(S(=O)(=O)Nc2ccc(C(=O)N/N=C/c3ccc(O)c4ncccc34)cc2)cc1 [Compound 147, 4-ethoxy-N-(4-(2-((8-hydroxyquinolin-5-yl)methylene)hydrazine-1-carbonyl)phenyl)benzenesulfonamide] | 52 | 40 | 25 | 1.8 | 6.2 | 2.9 | negative % growth | – | – | GI50 [11]: 0.2 to 0.4 µM
COc1ccc(C(=O)N/N=C/c2ccc(O)c3ccccc23)cc1 [Compound 148] | – | – | – | – | – | – | – | > 100 | > 100 | –
O=C(N/N=C/c1ccc(O)c2ccccc12)c1ccccc1 [Compound 149] | – | – | – | – | – | – | – | > 100 | > 100 | –
COc1ccc(C(=O)N/N=C/c2cccc3ncccc23)cc1 [Compound 150] | – | – | – | – | – | – | – | > 100 | > 100 | –
O=C(N/N=C/c1cccc2ncccc12)c1ccccc1 [Compound 151] | – | – | – | – | – | – | – | > 100 | > 100 | –
COc1ccc(C(=O)N/N=C/c2cccc3ccccc23)cc1 [Compound 152] | – | – | – | – | – | – | – | > 100 | > 100 | –
O=C(N/N=C/c1cccc2ccccc12)c1ccccc1 [Compound 153] | – | – | – | – | – | – | – | > 100 | ≥ 100 | –
COc1ccc(C(=O)N/N=C/c2ccc(O)cc2)cc1 [Compound 154] | – | – | – | – | – | – | – | > 100 | > 100 | –
O=C(N/N=C/c1ccc(O)cc1)c1ccccc1 [Compound 155] | – | – | – | – | – | – | – | > 100 | > 100 | –
COc1ccc(C(=O)N/N=C/c2ccccc2)cc1 [Compound 156] | – | – | – | – | – | – | – | > 100 | > 100 | –
O=C(N/N=C/c1ccccc1)c1ccccc1 [Compound 157] | – | – | – | – | – | – | – | > 100 | > 100 | –
Cc1ccc(S(=O)(=O)Nc2ccc(-c3nc4cc(NS(=O)(=O)c5ccc(C)cc5)ccc4o3)cc2)cc1 [Compound 162, 4-methyl-N-(4-(5-((4-methylphenyl)sulfonamido)benzo[d]oxazol-2-yl)phenyl)benzenesulfonamide] | – | – | – | – | – | – | negative % growth | – | – | GI50 [11]: 1 to 5 µM
COc1ccccc1S(=O)(=O)Nc1ccc(-c2nc3cc(NS(=O)(=O)c4ccccc4OC)ccc3o2)cc1 [Compound 164, 2-methoxy-N-(4-(5-((2-methoxyphenyl)sulfonamido)benzo[d]oxazol-2-yl)phenyl)benzenesulfonamide] | – | – | – | – | – | – | around 0% | – | – | GI50 [11]: 1 to 5 µM
O=C(Nc1ccc(Sc2nc3ccccc3s2)c(Cl)c1)c1cc(Br)ccc1O [Compound 165, N-(4-(Benzo[d]thiazol-2-ylthio)-3-chlorophenyl)-5-bromo-2-hydroxybenzamide] | – | – | – | – | – | – | negative % growth | – | – | GI50 [11]: 1 to 5 µM
